In patent US7981903B2, “2-[2-{phenylamino}-1H-pyrrolo[2,3-D]pyrimidin-4-yl)amino] benzamide derivatives as IGF-1R inhibitors for the treatment of cancer” (GlaxoSmithKline LLC, priority 2007, dated 2011):

How the values were obtained:
human IGF1R (hIGF1R) = biological target: T1, human IGF1R (hIGF1R) (Homo sapiens, UniProt P08069); experiment: TR-FRET kinase assay of purified hIGF1R; format: biochemical; conditions: activated hIGF1R 0.5 nM, 10 μM ATP, values given as pIC50 category, read-out: IGF-1R pIC50 (converted)
T1 construct: containing amino acid residues 957-1367 of human IGF1R; made in house; host or cells: Sf9 cells (baculovirus)
T1 sequence (P08069 957-1367): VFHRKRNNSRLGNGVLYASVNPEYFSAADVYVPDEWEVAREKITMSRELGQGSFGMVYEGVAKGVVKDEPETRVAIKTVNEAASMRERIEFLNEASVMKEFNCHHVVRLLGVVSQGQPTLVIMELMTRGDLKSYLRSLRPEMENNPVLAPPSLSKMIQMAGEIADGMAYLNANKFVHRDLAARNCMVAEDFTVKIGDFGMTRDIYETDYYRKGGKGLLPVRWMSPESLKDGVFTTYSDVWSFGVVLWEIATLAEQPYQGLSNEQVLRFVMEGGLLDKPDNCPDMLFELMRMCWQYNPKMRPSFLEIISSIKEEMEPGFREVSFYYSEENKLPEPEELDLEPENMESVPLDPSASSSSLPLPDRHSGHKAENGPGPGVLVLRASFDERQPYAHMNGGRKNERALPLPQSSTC

Colo205 = experiment: Inhibition of cell proliferation (CellTiter-Glo or InCell analyzer), Colo205; format: cell-based; conditions: Homo sapiens, COLO 205, 72 h / 3 days, values given as IC50 category
Outline: In one

[1] = biological target: T2, NIH-3T3 cells overexpressing human IR (Homo sapiens, UniProt P06213); experiment: IR cellular autophosphorylation (DELFIA); format: cell-based; conditions: 2 h compound, insulin 3 ug/ml for 15 minutes, IC50 category
T2 construct: expressed in transfected cells; host or cells: NIH-3T3 (mouse fibroblasts)
T2 sequence (P06213 28-1382): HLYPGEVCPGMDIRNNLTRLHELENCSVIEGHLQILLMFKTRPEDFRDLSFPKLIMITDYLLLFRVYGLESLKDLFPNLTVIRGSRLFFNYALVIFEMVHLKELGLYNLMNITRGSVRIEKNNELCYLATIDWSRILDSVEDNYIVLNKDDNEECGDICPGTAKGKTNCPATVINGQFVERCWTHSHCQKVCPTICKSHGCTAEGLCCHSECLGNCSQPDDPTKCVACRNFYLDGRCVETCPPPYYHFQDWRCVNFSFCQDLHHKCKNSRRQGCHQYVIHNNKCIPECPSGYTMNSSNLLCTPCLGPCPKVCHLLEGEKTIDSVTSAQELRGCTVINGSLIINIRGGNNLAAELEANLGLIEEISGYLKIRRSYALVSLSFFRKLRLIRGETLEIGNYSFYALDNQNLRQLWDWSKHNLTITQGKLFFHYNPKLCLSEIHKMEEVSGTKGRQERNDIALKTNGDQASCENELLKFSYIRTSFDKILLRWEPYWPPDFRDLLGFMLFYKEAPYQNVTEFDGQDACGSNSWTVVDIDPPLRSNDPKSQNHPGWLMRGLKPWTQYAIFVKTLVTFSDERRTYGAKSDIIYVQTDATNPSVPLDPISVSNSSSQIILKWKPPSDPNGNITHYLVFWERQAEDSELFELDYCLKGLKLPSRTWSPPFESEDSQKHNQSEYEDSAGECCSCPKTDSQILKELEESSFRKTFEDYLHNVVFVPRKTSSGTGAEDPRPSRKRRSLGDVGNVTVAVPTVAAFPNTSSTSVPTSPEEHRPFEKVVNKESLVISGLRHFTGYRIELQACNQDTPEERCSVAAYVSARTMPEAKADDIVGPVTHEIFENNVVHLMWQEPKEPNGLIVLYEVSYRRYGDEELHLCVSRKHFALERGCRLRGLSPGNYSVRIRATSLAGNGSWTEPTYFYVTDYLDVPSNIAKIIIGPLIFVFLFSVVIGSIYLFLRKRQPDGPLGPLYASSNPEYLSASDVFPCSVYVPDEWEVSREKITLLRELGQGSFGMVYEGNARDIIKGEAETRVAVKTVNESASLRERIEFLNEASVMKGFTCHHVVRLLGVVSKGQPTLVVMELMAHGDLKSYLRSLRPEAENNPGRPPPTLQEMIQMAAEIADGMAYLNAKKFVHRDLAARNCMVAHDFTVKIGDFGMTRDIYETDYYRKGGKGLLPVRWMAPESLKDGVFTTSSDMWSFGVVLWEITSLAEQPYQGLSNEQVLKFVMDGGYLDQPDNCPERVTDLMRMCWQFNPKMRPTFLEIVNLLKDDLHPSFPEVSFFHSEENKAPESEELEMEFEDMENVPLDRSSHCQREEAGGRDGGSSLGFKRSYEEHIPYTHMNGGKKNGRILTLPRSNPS
Outline: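 Receptor autophosphorylation measured by DELFIA, capturing IGF-1R or IRβ and detecting with europium anti-pTyr, reported as percent of IGF-1- or insulin-stimulated signal. Compounds (30 uM to 1.5 nM) added 2 h before ligand, then 15 min stimulation (IGF-1 30 ng/ml or insulin 3 ug/ml).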

NCI-H929 = experiment: Inhibition of cell proliferation (CellTiter-Glo or InCell analyzer), NCI-H929; format: cell-based; conditions: Homo sapiens, 72 h / 3 days, values given as IC50 category
Outline: In one

SMILES: COc1ccc(N2CCN(C)CC2)cc1Nc1nc(Nc2ccccc2C(N)=O)c2cc[nH]c2n1 [Example 9, 2-[(2-{[2-(methyloxy)-5-(4-methyl-1-piperazinyl)phenyl]amino}-1H-pyrrolo[2,3-d]pyrimidin-4-yl)amino]benzamide]
- IC50 (human IGF1R (hIGF1R)): 1.26 to 3.98 nM
- IC50 (Colo205): < 250 nM

SMILES: COc1ccc(N2CCN(C(C)C)CC2)cc1Nc1nc(Nc2ccccc2C(N)=O)c2cc[nH]c2n1 [Example 10, 2-[(2-{[5-[4-(1-methylethyl)-1-piperazinyl]-2-(methyloxy)phenyl]amino}-1H-pyrrolo[2,3-d]pyrimidin-4-yl)amino]benzamide]
- IC50 (human IGF1R (hIGF1R)): 1.26 to 3.98 nM
- IC50 (Colo205): < 250 nM
- IC50 [1]: 100 to 500 nM

SMILES: CN(C)CC(=O)Nc1ccc(Cl)c(Nc2nc(Nc3ccccc3C(N)=O)c3cc[nH]c3n2)c1 [Example 18, 2-{[2-({2-chloro-5-[(N,N-dimethylglycyl)amino]phenyl}amino)-1H-pyrrolo[2,3-d]pyrimidin-4-yl]amino}benzamide]
- IC50 (human IGF1R (hIGF1R)): 0.251 to 1 nM
- IC50 (Colo205): < 250 nM

SMILES: COc1cc(N2CCC(N3CC[C@H](F)C3)CC2)ccc1Nc1nc(Nc2cccc(F)c2C(N)=O)c2cc[nH]c2n1 [Example 43, 2-fluoro-6-[(2-{[4-{4-[(3S)-3-fluoro-1-pyrrolidinyl]-1-piperidinyl}-2-(methyloxy)phenyl]amino}-1H-pyrrolo[2,3-d]pyrimidin-4-yl)amino]benzamide]
- IC50 (human IGF1R (hIGF1R)): 1.26 to 3.98 nM
- IC50 (Colo205): 250 to 1000 nM
- IC50 [1]: 100 to 500 nM

SMILES: COc1cc(N2CCC(N3CC[C@@H](F)C3)CC2)ccc1Nc1nc(Nc2cccc(F)c2C(N)=O)c2cc[nH]c2n1 [Example 44, 2-fluoro-6-[(2-{[4-{4-[(3R)-3-fluoro-1-pyrrolidinyl]-1-piperidinyl}-2-(methyloxy)phenyl]amino}-1H-pyrrolo[2,3-d]pyrimidin-4-yl)amino]benzamide]
- IC50 (human IGF1R (hIGF1R)): 1.26 to 3.98 nM
- IC50 (Colo205): 250 to 1000 nM
- IC50 (NCI-H929): < 250 nM
- IC50 [1]: > 500 nM

SMILES: COc1cc(N2CCN(C(C)C)CC2)ccc1Nc1nc(Nc2cccc(F)c2C(N)=O)c2cc[nH]c2n1 [Example 46, 2-fluoro-6-[(2-{[4-[4-(1-methylethyl)-1-piperazinyl]-2-(methyloxy)phenyl]amino}-1H-pyrrolo[2,3-d]pyrimidin-4-yl)amino]benzamide]
- IC50 (human IGF1R (hIGF1R)): 1.26 to 3.98 nM
- IC50 (Colo205): < 250 nM
- IC50 (NCI-H929): < 250 nM
- IC50 [1]: 100 to 500 nM

SMILES: COc1cc(N2CCOC[C@@H]2C)ccc1Nc1nc(Nc2cccc(F)c2C(N)=O)c2cc[nH]c2n1 [Example 49, 2-fluoro-6-[(2-{[4-[(3S)-3-methyl-4-morpholinyl]-2-(methyloxy)phenyl]amino}-1H-pyrrolo[2,3-d]pyrimidin-4-yl)amino]benzamide]
- IC50 (human IGF1R (hIGF1R)): 1.26 to 3.98 nM
- IC50 (Colo205): < 250 nM
- IC50 [1]: 100 to 500 nM

SMILES: COc1cc(N2CCC(N3CCOCC3)CC2)ccc1Nc1nc(Nc2ccc(F)cc2C(N)=O)c2cc[nH]c2n1 [Example 59, 5-fluoro-2-{[2-({2-(methyloxy)-4-[4-(4-morpholinyl)-1-piperidinyl]phenyl}amino)-1H-pyrrolo[2,3-d]pyrimidin-4-yl]amino}benzamide]
- IC50 (human IGF1R (hIGF1R)): 1.26 to 3.98 nM
- IC50 (Colo205): < 250 nM

SMILES: COc1cc(N2CCOC[C@@H]2C)ccc1Nc1nc(Nc2ccc(F)cc2C(N)=O)c2cc[nH]c2n1 [Example 61, 5-fluoro-2-[(2-{[4-[(3S)-3-methyl-4-morpholinyl]-2-(methyloxy)phenyl]amino}-1H-pyrrolo[2,3-d]pyrimidin-4-yl)amino]benzamide]
- IC50 (human IGF1R (hIGF1R)): 1.26 to 3.98 nM
- IC50 (Colo205): < 250 nM
- IC50 [1]: < 100 nM

SMILES: COc1cc(N2CCN(C(C)C)CC2)ccc1Nc1nc(Nc2ccc(Br)cc2C(N)=O)c2cc[nH]c2n1 [Example 68, 5-bromo-2-[(2-{[4-[4-(1-methylethyl)-1-piperazinyl]-2-(methyloxy)phenyl]amino}-1H-pyrrolo[2,3-d]pyrimidin-4-yl)amino]benzamide]
- IC50 (human IGF1R (hIGF1R)): 1.26 to 3.98 nM
- IC50 (Colo205): < 250 nM

SMILES: COc1cc(C2=CCN(C(C)C)CC2)ccc1Nc1nc(Nc2cc(F)ccc2C(N)=O)c2cc[nH]c2n1 [Example 72, 4-fluoro-2-[(2-{[4-[1-(1-methylethyl)-1,2,3,6-tetrahydro-4-pyridinyl]-2-(methyloxy)phenyl]amino}-1H-pyrrolo[2,3-d]pyrimidin-4-yl)amino]benzamide]
- IC50 (human IGF1R (hIGF1R)): 0.251 to 1 nM
- IC50 (Colo205): 250 to 1000 nM
- IC50 [1]: 100 to 500 nM

SMILES: COc1cc(N2CCC[C@H](O)C2)ccc1Nc1nc(Nc2cc(F)ccc2C(N)=O)c2cc[nH]c2n1 [Example 74, 4-fluoro-2-[(2-{[4-[(3S)-3-hydroxy-1-piperidinyl]-2-(methyloxy)phenyl]amino}-1H-pyrrolo[2,3-d]pyrimidin-4-yl)amino]benzamide]
- IC50 (human IGF1R (hIGF1R)): 0.251 to 1 nM
- IC50 (Colo205): < 250 nM
- IC50 [1]: 100 to 500 nM

SMILES: COc1cc(N2CCC(N3CC[C@H](F)C3)CC2)ccc1Nc1nc(Nc2cc(F)ccc2C(N)=O)c2cc[nH]c2n1 [Example 75, 4-fluoro-2-[(2-{[4-{4-[(3S)-3-fluoro-1-pyrrolidinyl]-1-piperidinyl}-2-(methyloxy)phenyl]amino}-1H-pyrrolo[2,3-d]pyrimidin-4-yl)amino]benzamide]
- IC50 (human IGF1R (hIGF1R)): 0.251 to 1 nM
- IC50 (Colo205): < 250 nM
- IC50 [1]: < 100 nM

SMILES: COc1cc(N2CCC(N3CC[C@@H](F)C3)CC2)ccc1Nc1nc(Nc2cc(F)ccc2C(N)=O)c2cc[nH]c2n1 [Example 76, 4-fluoro-2-[(2-{[4-{4-[(3R)-3-fluoro-1-pyrrolidinyl]-1-piperidinyl}-2-(methyloxy)phenyl]amino}-1H-pyrrolo[2,3-d]pyrimidin-4-yl)amino]benzamide]
- IC50 (human IGF1R (hIGF1R)): 0.251 to 1 nM
- IC50 (Colo205): 250 to 1000 nM
- IC50 [1]: 100 to 500 nM

SMILES: COc1cc(N2CCC(N3CCCC(F)(F)C3)CC2)ccc1Nc1nc(Nc2cc(F)ccc2C(N)=O)c2cc[nH]c2n1 [Example 77, 2-[(2-{[4-(3,3-difluoro-1,4′-bipiperidin-1′-yl)-2-(methyloxy)phenyl]amino}-1H-pyrrolo[2,3-d]pyrimidin-4-yl)amino]-4-fluorobenzamide]
- IC50 (human IGF1R (hIGF1R)): 1.26 to 3.98 nM
- IC50 (Colo205): 250 to 1000 nM
- IC50 [1]: < 100 nM

SMILES: COc1cc(N2CCN(C(C)C)CC2)c(OC)cc1Nc1nc(Nc2cc(F)ccc2C(N)=O)c2cc[nH]c2n1 [Example 82, 4-fluoro-2-[(2-{[4-[4-(1-methylethyl)-1-piperazinyl]-2,5-bis(methyloxy)phenyl]amino}-1H-pyrrolo[2,3-d]pyrimidin-4-yl)amino]benzamide]
- IC50 (human IGF1R (hIGF1R)): 1.26 to 3.98 nM
- IC50 (Colo205): < 250 nM
- IC50 [1]: 100 to 500 nM

SMILES: CCCN1CCC=C(c2ccc(Nc3nc(Nc4cc(F)ccc4C(=O)N[C@@H](C)CC)c4cc[nH]c4n3)c(OC)c2)C1 [Example 87, 4-fluoro-2-[(2-{[2-(methyloxy)-4-(1-propyl-1,2,5,6-tetrahydro-3-pyridinyl)phenyl]amino}-1H-pyrrolo[2,3-d]pyrimidin-4-yl)amino]-N-[(1S)-1-methylpropyl]benzamide]
- IC50 (human IGF1R (hIGF1R)): 1.26 to 3.98 nM
- IC50 (Colo205): 250 to 1000 nM
- IC50 [1]: > 500 nM

SMILES: COc1cc(N2CCN(C(C)C)CC2)ccc1Nc1nc(Nc2cc(F)cc(OC)c2C(N)=O)c2cc[nH]c2n1 [Example 88]
- IC50 (human IGF1R (hIGF1R)): 1.26 to 3.98 nM
- IC50 (Colo205): 250 to 1000 nM
- IC50 [1]: > 500 nM

SMILES: COc1cc(N2CCC(O)CC2)ccc1Nc1nc(Nc2cc(F)c(F)cc2C(N)=O)c2cc[nH]c2n1 [Example 99]
- IC50 (human IGF1R (hIGF1R)): 0.251 to 1 nM
- IC50 (Colo205): 250 to 1000 nM

SMILES: COc1cc(N2CCC(N3CCCCC3)CC2)ccc1Nc1nc(Nc2cc(F)c(F)cc2C(N)=O)c2cc[nH]c2n1 [Example 100, 2-[(2-{[4-(1,4′-bipiperidin-1′-yl)-2-(methyloxy)phenyl]amino}-1H-pyrrolo[2,3-d]pyrimidin-4-yl)amino]-4,5-difluorobenzamide]
- IC50 (human IGF1R (hIGF1R)): 0.251 to 1 nM
- IC50 (Colo205): < 250 nM

SMILES: COc1cc(N2CCC(N3CCOCC3)CC2)ccc1Nc1nc(Nc2cc(F)c(F)cc2C(N)=O)c2cc[nH]c2n1 [Example 101, 4,5-difluoro-2-{[2-({2-(methyloxy)-4-[4-(4-morpholinyl)-1-piperidinyl]phenyl}amino)-1H-pyrrolo[2,3-d]pyrimidin-4-yl]amino}benzamide]
- IC50 (human IGF1R (hIGF1R)): 0.251 to 1 nM
- IC50 (Colo205): 250 to 1000 nM
- IC50 [1]: > 500 nM

SMILES: COc1cc(N2CCN(C(C)=O)CC2)ccc1Nc1nc(Nc2cc(F)c(F)cc2C(N)=O)c2cc[nH]c2n1 [Example 103, 2-[(2-{[4-(4-acetyl-1-piperazinyl)-2-(methyloxy)phenyl]amino}-1H-pyrrolo[2,3-d]pyrimidin-4-yl)amino]-4,5-difluorobenzamide]
- IC50 (human IGF1R (hIGF1R)): 0.251 to 1 nM
- IC50 (Colo205): < 250 nM
- IC50 [1]: 100 to 500 nM

SMILES: COc1cc(N2CCOCC2)ccc1Nc1nc(Nc2cc(F)c(F)cc2C(N)=O)c2cc[nH]c2n1 [Example 104, 4,5-difluoro-2-[(2-{[2-(methyloxy)-4-(4-morpholinyl)phenyl]amino}-1H-pyrrolo[2,3-d]pyrimidin-4-yl)amino]benzamide]
- IC50 (human IGF1R (hIGF1R)): 0.251 to 1 nM
- IC50 (Colo205): > 1000 nM

SMILES: COc1cc(N2CCOC[C@@H]2C)ccc1Nc1nc(Nc2cc(F)c(F)cc2C(N)=O)c2cc[nH]c2n1 [Example 105, 4,5-difluoro-2-[(2-{[4-[(3S)-3-methyl-4-morpholinyl]-2-(methyloxy)phenyl]amino}-1H-pyrrolo[2,3-d]pyrimidin-4-yl)amino]benzamide]
- IC50 (human IGF1R (hIGF1R)): 0.251 to 1 nM
- IC50 (Colo205): < 250 nM
- IC50 [1]: < 100 nM

SMILES: COc1cc(N2CCC(C3CCN(CCS(C)(=O)=O)CC3)CC2)ccc1Nc1nc(Nc2cccc(F)c2C(N)=O)c2cc[nH]c2n1 [Example 112, 2-fluoro-6-({2-[(2-(methyloxy)-4-{1′-[2-(methylsulfonyl)ethyl]-4,4′-bipiperidin-1-yl}phenyl)amino]-1H-pyrrolo[2,3-d]pyrimidin-4-yl}amino)benzamide]
- IC50 (human IGF1R (hIGF1R)): 1.26 to 3.98 nM
- IC50 (Colo205): < 250 nM
- IC50 (NCI-H929): < 250 nM
